Converted amounts (≈) assume the structure as drawn.

The conditions of this data set: buffer; pH 7.4; 200.0 µM.
The term kinetic solubility denotes the concentration staying in solution when a stock, usually in DMSO, is diluted into the medium. For `Cc1ccc(NC(=O)CN(C)C(=O)Cc2ccccc2F)cc1`, the kinetic solubility is > 47.2 µg/mL.

For the compound `O=C(CCC(=O)N1CCCCCC1)NCc1ccc(F)cc1`, the solubility (kinetic) was > 46 µg/mL.

Compound `COc1ccc(C(=O)OCC(=O)N2CCc3ccccc32)cc1S(=O)(=O)N1CCOCC1` yielded a kinetic solubility of 24.8 µg/mL (≈ 53.9 µM).

In the case of `Cc1ccc(-c2nc3ccccc3c(=O)n2O)cc1`, the solubility (kinetic) amounted to 24.1 µg/mL (≈ 95.5 µM).

As for `O=c1cnnc(Nc2ccccc2F)[nH]1`, the kinetic solubility is > 30.9 µg/mL.

`CCCCCCCOc1ccc(C2CC(=O)N(C)C2=O)cc1` (configuration not stated) showed a solubility (kinetic) of 3.1 µg/mL (≈ 10.2 µM).

Turning to `Nc1nnc(CC(=O)Nc2ccccc2)s1`, the solubility (kinetic) was > 35.1 µg/mL.

Take `COc1ccc(N2CCN(C(=O)CCc3ccccc3)CC2)cc1`: the kinetic solubility is > 48.7 µg/mL.

For `COc1ccc2nc(N(Cc3ccccc3)C(=O)CCNC(C)=O)sc2c1`, the kinetic solubility came to 3.3 µg/mL (≈ 8.61 µM).

Consider `COc1cc2[nH]c(=S)nc(NCc3cccnc3)c2cc1OC`, for which the solubility (kinetic) was 12.2 µg/mL (≈ 37.2 µM).

In turn, `COc1ccc(/C=C(\C#N)C(=O)NCc2ccccc2)cc1` returned a solubility (kinetic) of 2.2 µg/mL (≈ 7.53 µM).

On to `CC(=O)c1ccc(NC(=O)c2ccccc2-c2ccccc2C(=O)O)cc1`, for which the solubility (kinetic) is > 53.9 µg/mL.

`CN1CCC(NC(=S)NC2CC2)CC1`: the solubility (kinetic) was > 32 µg/mL.

`CCSc1ncc(Cl)c(C(=O)Nc2ccccc2F)n1`: the kinetic solubility amounted to 0.5 µg/mL (≈ 1.6 µM).

Compound `CCOC(=O)C1CCN(C(=O)COc2ccc(C(=O)c3ccccc3)cc2)CC1` came in with a solubility (kinetic) of 36.6 µg/mL (≈ 92.6 µM).

The compound `COc1ccc(CNC(=O)C(=O)NCc2cccnc2)cc1` registered a solubility (kinetic) of 20.9 µg/mL (≈ 69.8 µM).

Take `COc1cccc(CNc2nccs2)c1O`: the solubility (kinetic) is > 35.4 µg/mL.

`COc1ccc(NC(=O)c2nc(SC)ncc2Cl)cc1` showed a solubility (kinetic) of 8.2 µg/mL (≈ 26.5 µM).

`Cc1ccccc1NC(=O)Cc1nnc(N)s1`: the solubility (kinetic) was > 37.2 µg/mL.

On to `O=C(Nc1cccnc1Cl)c1ccc(Cl)cc1`, for which the solubility (kinetic) came to 35 µg/mL (≈ 131 µM).

As to `Cc1ccccc1COC(=O)c1cc([N+](=O)[O-])ccc1N1CCOCC1`, the kinetic solubility came out at 5.8 µg/mL (≈ 16.3 µM).

On to `Cc1cc(C)c(C)c(S(=O)(=O)N2CCN(C(=O)c3ccco3)CC2)c1C`, for which the kinetic solubility was found to be 4.1 µg/mL (≈ 10.9 µM).

With `CCCN(Cc1cc(=O)[nH]c2ccccc12)C(=O)CC`, the solubility (kinetic) was found to be 38.5 µg/mL (≈ 141 µM).

Compound `O=C(Nc1cccc2cccnc12)c1ccccc1Br` returned a solubility (kinetic) of 0.4 µg/mL (≈ 1.22 µM).

`O=[N+]([O-])c1cc(CN2CCCCCC2)ccc1O` yielded a kinetic solubility of 33.3 µg/mL (≈ 133 µM).

On to `O=C(CN1C(=O)NC2(CCCC2)C1=O)Nc1nc(-c2ccccc2)cs1`, for which the kinetic solubility worked out at 1.7 µg/mL (≈ 4.59 µM).

Regarding `COc1ccc(CCN=Cc2ccc(O)cc2)cc1OC`, the kinetic solubility is 40.1 µg/mL (≈ 141 µM).

Consider `COc1ccc(C(=O)NC(=S)N2CC(C)OC(C)C2)cc1OC` (configuration not stated), for which the kinetic solubility was > 50.8 µg/mL.

The compound `COC(=O)c1ccc(S(=O)(=O)N(CCO)Cc2ccccc2)n1C` yielded a solubility (kinetic) of 47.6 µg/mL (≈ 135 µM).

On to `COc1cccc(C2C([N+](=O)[O-])=C(N)Oc3cc(C)oc(=O)c32)c1` (configuration not stated), for which the solubility (kinetic) is > 49.5 µg/mL.

`CN1CCN(c2ccc(CNS(=O)(=O)c3ccsc3)cc2)CC1` displayed a kinetic solubility of 22.7 µg/mL (≈ 64.6 µM).

Compound `O=C(NC1CCCc2ccccc21)c1ccccn1` (configuration not stated) came in with a kinetic solubility of 35.9 µg/mL (≈ 142 µM).

For `OC1CCN(Cc2ccc3ccccc3c2)CC1`, the solubility (kinetic) was determined as 26.6 µg/mL (≈ 110 µM).

Take `COc1ccc(NC(=O)CSc2ccc3c(c2)OCCO3)cc1S(N)(=O)=O`: the kinetic solubility was > 61.6 µg/mL.

In the case of `Cc1c(C(=O)NCC2CCCO2)oc2c(Cl)cccc12` (configuration not stated), the kinetic solubility was > 44.1 µg/mL.

For `Cn1cnnc1SCC(=O)Nc1ccccc1F`, the solubility (kinetic) is > 39.9 µg/mL.

The compound `CC(=O)c1cccc(OCC(=O)OCC(=O)Nc2cc(S(=O)(=O)N3CCCCC3)ccc2C)c1` came in with a kinetic solubility of 61.5 µg/mL (≈ 126 µM).

Take `Cc1cccc(-c2nsc(SCC(=O)NCC3CCCO3)n2)c1` (configuration not stated): the kinetic solubility was > 52.4 µg/mL.

With `Cc1ccc(OCC(=O)NCCCNC(=O)c2cnccn2)cc1C`, the solubility (kinetic) is 49.9 µg/mL (≈ 146 µM).

Compound `CCCc1cc(=O)[nH]c(SCC(=O)c2c(N)n(C3CC3)c(=O)[nH]c2=O)n1` came in with a solubility (kinetic) of 30.7 µg/mL (≈ 81.3 µM).

`CN1CCN(C(=O)CN(C)S(=O)(=O)c2ccc(F)cc2)CC1` came in with a solubility (kinetic) of 44.7 µg/mL (≈ 136 µM).

Regarding `Cl.O=C(Nc1ncc([N+](=O)[O-])s1)c1cccs1`, the kinetic solubility is > 43.8 µg/mL.

`Cc1ccc(NC(=O)CN2CCc3ccccc3C2)cc1C` showed a kinetic solubility of 18.8 µg/mL (≈ 63.9 µM).

Compound `c1cc2c3c(cccc3c1)C(N1CCOCC1)=N2` registered a kinetic solubility of 34.8 µg/mL (≈ 146 µM).

In the case of `O=C(COC(=O)CNC(=O)c1ccccc1F)Nc1ccc(Cl)cn1`, the kinetic solubility is 22.2 µg/mL (≈ 60.7 µM).

The compound `COc1ccc(NC(=O)N2CCc3cc(OC)c(OC)cc3C2)cc1` gave a kinetic solubility of 9.1 µg/mL (≈ 26.6 µM).

For `O=C(O)COCC(=O)Nc1ccc(OCCc2ccccc2)cc1`, the kinetic solubility came out at 45.4 µg/mL (≈ 138 µM).

For `Br.CC1=C(c2ccccc2)SC2=NCCN21`, the solubility (kinetic) is > 44.6 µg/mL.

In turn, `O=C(c1ccc2oc(CCc3ccccc3)nc2c1)N1CC[C@H](O)C1` showed a solubility (kinetic) of 41.1 µg/mL (≈ 122 µM).

`CN(Cc1ccc(F)cc1)C(=O)CN1C(=O)c2ccccc2S1(=O)=O` registered a kinetic solubility of 49 µg/mL (≈ 135 µM).

Turning to `O=[N+]([O-])c1cccnc1Oc1ccc(C2SCCS2)cc1`, the solubility (kinetic) was < 0.3 µg/mL.

For the compound `COc1cccc(CN2CCN(c3ccc(F)cc3)C2=O)c1`, the kinetic solubility stood at 29.9 µg/mL (≈ 99.6 µM).

The values are drawn from PubChem BioAssay AID1996.
